Converted amounts (≈) assume the structure as drawn. “And” between values parts separate entries of the source, which are not always exact repeats. Equal values may be shown once.
Columns and labels:
[1] = Cytotoxicity assay (CellTiter Glo) on normal fibroblasts; format: cell-based, human; details: human, FB789 normal fibroblast cells
Method: (§1) Cell-based assays were carried out on the normal human fibroblast FB789 cell line (kindly provided by Elena Dell’Ambra from IRCCS Istituto Dermopatico dell’Immacolata, Rome), on the Huh7 hepatocarcinoma cell line (kindly provided by Istituto Toscano Tumori, Core Research Laboratory, Siena, Italy), on the Caco-2 adenocarcinoma colorectal cell line (ATCC catalog. n. HTB-37), on the suspension H9 cell line (repository code ARP0001, NIBSC Centre for AIDS reagents) and on the adherent TZM-bl cell line (repository code ARP5011, NIBSC Centre for AIDS reagents).
(§2) The FB789 was cultured in Dulbecco’s Modified Eagle Medium (DMEM) and Ham’s F10 in a ratio of 50%, supplemented with 10% FBS, 2 mM L-glutamine, and 10,000 unit/mL penicillin/streptomycin.
(§3) The cytotoxicity of all investigated compounds was assayed in all cells lines as previously described. Briefly, confluent cells were treated with decreasing compound concentrations for 48h. The final DMSO concentration used was never greater than 0.5% v/v. Each experiment was performed in duplicate and repeated in two independent experiments. Cell viability was calculated using the CellTiter Glo 2.0 kit (Promega, Madison, WI, USA) and luminescence values signal obtained from cells treated with serial dilution of the compounds were measured through the GloMax® Discover Multi mode Microplate Reader (Promega) and elaborated with GraphPad PRISM software version 9.0 (La Jolla, San Diego, CA, USA). […] A non-toxic dose of each compound was used as the starting concentration in the antiviral activity assay.

[2] = Cytotoxicity assay (CellTiter Glo) on hepatocarcinoma cells; format: cell-based; details: human, Huh7 hepatocarcinoma cells, Huh7 hepatocarcinoma
Method: as §1
(§4) High glucose Dulbecco’s Modified Eagle Medium with sodium pyruvate and L-glutamine (DMEM; Euroclone) was used to grow Huh-7 and TZM-bl. Minimum Essential Eagle Medium (EMEM; Euroclone) was used to propagate Caco-2. DMEM and EMEM were supplemented with 10% fetal bovine serum (FBS; Euroclone) and 1% penicillin/streptomycin (Pen/Strep, Euroclone). The growth medium with a lower concentration of FBS (1%) was used for viral propagation, cytotoxic and antiviral experiments in adherent cell lines. […] All cell lines were grown at 37 °C in a 5% CO2 atmosphere in a humidified incubator.
as §3

[3] = test system: Huh7 cells; assay: as above; format: cell-based; details: ratio CC50 FB789 / CC50 Huh7
Method: as §1, §4, §3

[4] = test system: WNV; assay: WNV antiviral yield reduction assay in Huh7; details: read-out: potency on WNV; flavivirus WNV
[5] = test system: DENV; assay: DENV antiviral yield reduction assay in Huh7; details: read-out: potency on DENV; flavivirus DENV
[6] = Cytotoxicity assay (CellTiter Glo) on lymphoma cells; details: human
[7] = test system: H9 cells; assay: as above; details: ratio CC50 FB789 / CC50 H9
[8] = Cytotoxicity assay (CellTiter Glo) on colon epithelial carcinoma cells; details: human, Caco-2
[9] = test system: Caco-2 cells; assay: as above; details: ratio CC50 FB789 / CC50 Caco-2
[10] = test system: FB789 cells; assay: Cytotoxicity assay (CellTiter Glo) on normal fibroblasts; format: cell-based, human; details: pyrimidines and pyridines, read out at 48 h, mean ± SD
Method: as §1, §2, §3

[11] = Kinetic aqueous solubility; format: physicochemical; details: Milli-Q water, 25 °C, kinetic from dmso stock; for solubility kinetic at 3 h: water, Mill-Q H2O, RT, LOD 0.1 µg/mL
Method: For the quantitative analysis, a UV/LC-MS system was used. LC analysis was performed through an Agilent 1260 Infinity HPLC-DAD system (Agilent Technologies, Palo Alto, CA, USA), which constituted of a vacuum solvent degassing unit, a binary high-pressure gradient pump, and a UV detector, that was connected to an Agilent MSD 6130 system (Agilent Technologies, Palo Alto, CA, USA). The Agilent 1260 series mass spectra detection (MSD) single-quadrupole instrument was equipped with the orthogonal spray API-ES (Agilent Technologies, Palo Alto, CA, USA). Nitrogen was used as a nebulizing and drying gas. Chromatographic separation was performed using a Phenomenex Kinetex EVO C18-100 Å (150 × 4.6 mm, 5 μm particle size) at 25 °C and a gradient elution with a binary solution; eluent A was H2O, while eluent B consisted of ACN (both eluents were acidified with FA 0.1% v/v). […] UV detection was monitored at 254 nm. Spectra were acquired over the scan range m/z 100–1500 in positive mode.
DMSO-stock compounds’ solutions were diluted with Mill-Q H2O to a final concentration of 200 μM. The percentage of DMSO never exceeded 2% v/v. Samples were incubated under gentle shaking at 25 °C (RT) conditions for 3 h. The suspensions were filtered using a 0.45 µm nylon filter (Acrodisc, VWR, Radnor, PE, USA), and the amount of solubilized compound was determined with the HPLC-UV-MS method reported above. The quantification of the solubilized compound was made with the appropriate calibration curve realized with stock solutions in DMSO (0.1–100 µg/mL). The limit of detection (LOD) was quantified at 0.1 µg/mL.

[12] = Parallel artificial membrane permeability assay (PAMPA); format: in vitro ADME; details: GI, pH 7.4, 5 h, RT
Method: To evaluate the apparent permeability of tested compounds, a DMSO stock solution [1 mM] of each derivative was prepared and then diluted 1:1 v/v with phosphate buffer (PBS 25 mM, pH 7.4) in order to make the donor solutions. According to the protocol already published, the gastrointestinal (GI) phospholipidic bilayer was mimed through adding a 1% w/v dodecane solution of phosphatidylcholine (PC). The sandwich plates were assembled and incubated for 5 h at RT. At the end time point, the amount of compound passed through the phospholipid bilayer was measured using HPLC-UV/MS. Finally, apparent permeability (Papp) and membrane retention (MR%) were calculated as previously described.

[13] = Metabolic stability assay with human liver microsomes; format: in vitro ADME; details: 1 h, 37 °C, 50 µM
Method: A DMSO solution of selected compounds was incubated in the presence of phosphate buffer (25 mM, pH 7.4), human liver microsomal protein (200 µg/mL), and an NADPH regenerating system in MgCl2 (48 mM) at a final concentration of 50 µM. The metabolic reactions were conducted for 1 h under shaking at 37 °C and then stopped by adding cold acetonitrile (ACN). Centrifuging the mixtures at 5000 rpm, the supernatant was separated, dried under nitrogen flow, and finally suspended in methanol (MeOH). The amount of the parent drug and the metabolites were determined as previously described.

[14] = Plasma stability assay; format: in vitro ADME; details: human plasma, 24 h, 37 °C; % of Time 0
Method: A DMSO solution of each compound was incubated at a final concentration of 100 µM at 37 °C under shaking with HEPES buffer (25 mM, 140 mM NaCl, pH 7.4) and human plasma. At time 0 and after 24 h, samples were collected from the reaction mixtures and treated with cold ACN. After centrifugation at 5000 rpm for 10 min, the supernatant was collected, and the amount of unmodified compound was determined using the HLPC-UV/MS method described above. Modified compounds were calculated using time zero as 100% of the unmodified compound.

[15] = test system: SARS-CoV-2; set-up: method as in PMID 36557962; details: half-maximal concentration inhibiting 50% of virus replication; cited from earlier work
[16] = triazines 1-9, read-out 48 h, Cell-Titer Glo
[17] = pyrimidines and pyridines, read out at 48 h, mean ± SD

Compound | CC50 at 48 h [1, 16] [µM] | CC50 at 48 h ([2]; triazines 1-9, read-out 48 h) [µM] | TSI Huh7 ([3]; triazines 1-9) | CC50 at 48 h [6] [µM] | TSI H9 ([7]; triazines 1-9) | CC50 at 48 h [8] [µM] | TSI Caco-2 ([9]; triazines 1-9) | CC50 at 48 h [1, 17] [µM] | CC50 FB789 [10] | CC50 at 48 h [2, 17] [µM] | TSI Huh7 ([3]; pyrimidines and pyridines) | solubility kinetic at 3 h [11] [µg/mL] | Papp at 5 h, 0.5 mM [12] [×10⁻⁶ cm/s] | Metabolic Stability [13] [%] | Plasmatic Stability [14] [%] | TSI H9 ([7]; pyrimidines and pyridines) | TSI Caco-2 ([9]; pyrimidines and pyridines) | further results
Oc1ccccc1/C=N/Nc1nc(Nc2ccc(F)cc2)nc(N2CCOCC2)n1 [Compound 4] | 11 ± 3 | 9 ± 1 | 1.2 | 2 ± 1 | 5.5 | 3 ± 1 | 3.7 | – | – | – | – | – | – | – | – | – | – | IC50 [4]: 1.1 µM; IC50 [5]: 2 µM
Cc1cccc(/C=N/Nc2cc(Nc3ccc(F)cc3)nc(Nc3ccc(F)cc3)c2)c1 [Compound 33b] | – | – | – | 23 ± 7 | – | 11 ± 9 | – | 390 ± 30 | very low cytotoxic effect | 21 ± 12 | 18.6 | < 0.1 | 1.38 ± 0.6 | >99.9 | 81.01 ± 3.28 | 17.0 | 35.5 | MR (membrane retention) [12]: 46.84% and 46.84 ± 4.99%
Cc1cccc(/C=N/Nc2cc(Nc3ccc(F)cc3)nc(N3CCOCC3)c2)c1 [Compound 38b] | – | – | – | 18 ± 4 | – | 8 ± 3 | – | 90 ± 9 | very low cytotoxic effect | 9 ± 6 | 10.0 | 0.54 (≈ 1.33 µM) | 6.35 ± 0.67 | 97.93 ± 0.46 | 87.13 ± 0.48 | 5.0 | 11.3 | solubility at 3 h ([11]; log of kinetic water solubility, read-out: LogS (converted)): 1.35 µM (≈ 0.547 µg/mL)
Oc1ccccc1/C=N/Nc1nc(N2CCOCC2)nc(N2CCOCC2)n1 [Compound 1] | 30 ± 6 | > 100 | <0.3 | > 100 | <0.3 | > 400 | <0.1 | – | – | – | – | – | – | – | – | – | – | IC50 [15]: 12.1 µM

— publication PMC11013010, “Serendipitous Identification of Azine Anticancer Agents Using a Privileged Scaffold Morphing Strategy” (Molecules, 2024)
